Laboratory results taken from the NIST ThermoML archive (doi:10.1016/j.fluid.2005.08.011).

Conditions: Gas, isochoric method

CCF [fluoroethane]
Conditions | mass density [kg/m3]
356.15 K, 2885.7 kPa | 68.626
356.16 K, 2305.7 kPa | 48.782
356.16 K, 3104.4 kPa | 78.187
356.26 K, 3251.2 kPa | 85.647
357.26 K, 3274.8 kPa | 85.642
358.15 K, 1481.8 kPa | 27.547
358.15 K, 1906.7 kPa | 37.477
358.15 K, 2569.2 kPa | 56.174
358.15 K, 2920 kPa | 68.619
358.15 K, 3297.7 kPa | 85.639
358.16 K, 2328.4 kPa | 48.777
358.16 K, 2692.5 kPa | 60.266
358.16 K, 3145.7 kPa | 78.179
358.16 K, 3506.4 kPa | 97.915
359.16 K, 3534.2 kPa | 97.91
360.15 K, 2595.9 kPa | 56.168
360.15 K, 2954.3 kPa | 68.612
360.16 K, 2721.3 kPa | 60.26
360.16 K, 3186 kPa | 78.171
360.16 K, 3343.9 kPa | 85.63
360.16 K, 3562.2 kPa | 97.905
360.17 K, 2350.8 kPa | 48.772
360.17 K, 3660.7 kPa | 104.59
361.15 K, 3589.9 kPa | 97.9
361.16 K, 3691 kPa | 104.585
362.14 K, 2622.7 kPa | 56.163
362.15 K, 811.8 kPa | 13.877
362.15 K, 2988.3 kPa | 68.605
362.15 K, 3226.2 kPa | 78.163
362.15 K, 3389.2 kPa | 85.622
362.15 K, 3617 kPa | 97.896
362.16 K, 1505 kPa | 27.541
362.16 K, 1939.6 kPa | 37.469
362.16 K, 3721.4 kPa | 104.58
362.17 K, 2373 kPa | 48.767
362.17 K, 2750.9 kPa | 60.254
363.15 K, 3644.5 kPa | 97.891
363.16 K, 3751.4 kPa | 104.574
364.15 K, 2649.2 kPa | 56.157
364.15 K, 3023 kPa | 68.598
364.15 K, 3434.4 kPa | 85.613
364.15 K, 3780.8 kPa | 104.569
364.16 K, 2394.9 kPa | 48.762
364.16 K, 3266.5 kPa | 78.156
364.16 K, 3671.6 kPa | 97.886
364.17 K, 2779.6 kPa | 60.248
365.16 K, 3698.9 kPa | 97.881
365.16 K, 3810.4 kPa | 104.564
366.14 K, 1527.7 kPa | 27.536
366.14 K, 2675.7 kPa | 56.152
366.15 K, 1971.5 kPa | 37.462
366.15 K, 3056.7 kPa | 68.592
366.15 K, 3306.2 kPa | 78.148
366.15 K, 3478.5 kPa | 85.605
366.15 K, 3725.2 kPa | 97.876
366.15 K, 3839.8 kPa | 104.559
366.16 K, 2417.4 kPa | 48.757
366.16 K, 2808.4 kPa | 60.242
367.15 K, 3751.8 kPa | 97.871
367.15 K, 3869 kPa | 104.554
368.14 K, 2702 kPa | 56.146
368.14 K, 3090.7 kPa | 68.585
368.15 K, 3346 kPa | 78.14
368.15 K, 3523.3 kPa | 85.596
368.15 K, 3898.1 kPa | 104.548
368.16 K, 2439.4 kPa | 48.753
368.16 K, 2837.3 kPa | 60.236
368.16 K, 3778.8 kPa | 97.866
369.14 K, 3805.1 kPa | 97.861
369.15 K, 3927.3 kPa | 104.543
370.12 K, 1550.1 kPa | 27.531
370.13 K, 3123.8 kPa | 68.578
370.14 K, 2728 kPa | 56.14
370.14 K, 3568 kPa | 85.588
370.14 K, 3831.8 kPa | 97.857
370.15 K, 833.2 kPa | 13.872
370.15 K, 2461.8 kPa | 48.748
370.15 K, 3385.9 kPa | 78.132
370.15 K, 3956.2 kPa | 104.538
370.16 K, 2004 kPa | 37.454
370.16 K, 2865.8 kPa | 60.23
